Reference: patent publication US4962107A, “Agent for cerebral protection” (Kyowa Hakko Kogyo Kabushiki Kaisha, priority 1985, dated 1990)

How the values were obtained:
[1] = system: mice subjected to normobaric hypoxia; assay: Effects on survival time of mice subjected to normobaric hypoxia; format: in vivo, mouse (ddY strain; male); conditions: 50 mg/kg oral, 2 h before; 96% nitrogen/4% oxygen; protected = alive 10 or more minutes
Method: Mice (ddY strain; male; body weight 20-22 g) were used as test animals. Each group consisted of 10 or more mice. A test compound (50 mg/kg) was orally administered to each mouse.
Then each animal was put into a glass cylinder (capacity: 700 ml) and a mixture of nitrogen (96%) and oxygen (4%) was passed through the cylinder at a velocity of 5 1 /min and expelled through a hole in the side wall. The time from the start of the gas mixture supply to the cessation of respiratory motion was measured, and animals which remained alive for 10 or more minutes were evaluated as "protected". Among 50 untreated animals, no animal remained alive. In use, the test compound was suspended in an aqueous solution of carboxymethylcellulose sodium (0.3%).

[2] = Test for acute toxicity (LD50, oral, 7 days); conditions: mouse, in vivo, mice, deaths within 7 days, 5 mice per group
Method: Mice (ddY strain; male; body weight 21-23 g) were used as test animals. Each group consisted of 5 mice. The test compound was orally administered to each mouse. During the test period of 7 days after the administration, the number of deaths in each group was counted to calculate the LD50. All animals were bred in a breeding room, maintained at a temperature of 23°±2° C. and a humidity of 55-60%. These animals were given a solid feed "F-2" (commercial product of Funabashi Nojo) and city water ad libitum.

[3] = Acute toxicity (general statements, comparison with nizofenone); conditions: in vivo, po; per os; species and method not stated at this place
[4] = system: cerebral ischaemia or cerebral hypoxia; conditions: cited from literature; cited from earlier work
[5] = cited from literature / background; cited from earlier work
[6] = system: decapitated heads of mice; assay: Effect on time of gasping persistence by decapitated heads of mice; format: in vivo, mouse (ddY strain; male); conditions: 30 mg/kg oral, 2 h before decapitation; mean ± S.E.; **P < 0.001 vs control
Method: Mice (ddY strain; male; body weight 20-22 g) were used as test animals. Each group consisted of 10 or more mice. A test compound (30 mg/kg) was orally administered to each mouse. Two hours after the administration, each animal was decapitated, and the time from the decapitation to the cessation of gasping was measured. Time of gasping persistence of the treated group and that of the control group were compared by t-test.

[7] = system: mice subjected to hypobaric hypoxia; assay: Effects on survival time of mice subjected to hypobaric hypoxia; format: in vivo, mouse (ddY strain; male); conditions: 30 mg/kg oral, 2 h before; 150 mmHg; mean ± S.E.; *P < 0.05, **P < 0.001 vs control
Method: Mice (ddY strain; male; body weight 20-22 g) were used as test animals. Each group consisted of 10 or more mice. A test compound (30 mg/kg) was orally administered to each mouse. Two hours after the administration, each animal was put into a desiccator (capacity: 9 l), and the inside pressure of the desiccator was reduced to 150 mmHg over a period of 52-55 seconds. The time from the start of the pressure reduction to the cessation of respiratory motion was measured. Survival time of the compound-administered group and that of the control group were compared by t-test.

[8] = system: mice subjected to anaemic hypoxia; assay: Effects on survival time of mice subjected to anaemic hypoxia (NaNO2); format: in vivo, mouse (ddY strain; male); conditions: 30 mg/kg oral, 2 h before; NaNO2 225 mg/kg s.c.; mean ± S.E.; *P < 0.05, **P < 0.001 vs control
Method: (Hypoxia induced by NaNO2 administration to convert haemoglobin to methemoglobin)
Mice (ddY strain; male; body weight 20-22 g) were used as test animals. Each group consisted of 10 or more mice. A test compound (30 mg/kg) was orally administered to each mouse. Two hours after the administration, NaNO2 (225 mg/kg) was subcutaneously administered to each mouse. The time from the NaNO2 administration to death was measured. Survival time of the compound-administered group and that of the control group were compared by t-test.

Row | SMILES | A/B (number of animals surviving / number of animals tested) [1] | LD50 at 168 h [2] [mg/kg] | further results
1 | CC1CCCC(C)N1C(=O)C=Cc1ccc(C(F)(F)F)cc1 (stereo not drawn) [Compound 5, 2,6-Dimethyl-1-(4-trifluoromethylcinnamoyl) piperidine] | 15/20 | > 1010 | 
2 | O=C(C=Cc1ccc(Cl)c(Cl)c1)N1CCOCC1 [Compound 15, 4(3,4-dichlorocinnamoyl) morpholine] | 5/10 | 450 to 675 | 
3 | O=C(C=Cc1ccc(C(F)(F)F)cc1)N1CCS(=O)(=O)CC1 [Compound 13, 4-(4-trifluoromethylcinnamoyl) thiomorpholine-1,1-dioxide] | 6/10 |  | 
4 | CCN(CC)Cc1nccn1-c1ccc([N+](=O)[O-])cc1C(=O)c1ccccc1Cl.O=C(O)/C=C/C(=O)O [nizofenone, 1-[2-(2-chlorobenzoyl)-4-nitrophenyl]-2-(diethylaminomethyl)imidazole fumarate] |  |  | LD50 [3]: 450 to 675 mg/kg; cerebral protective effect (literature) [4]: has a cerebral protective effect against cerebral ischaemia or cerebral hypoxia, similar to that of barbiturates; anesthetic or respiration-suppressing action, side effects (literature) [5]: does not exhibit an anesthetic or respiration-suppressing action
5 | O=C(C=Cc1ccc(Cl)cc1)N1CCCCC1 [Compound 14, 1(4-chlorocinnamoyl) piperidine] | 4/10 | > 1010 | 
6 | O=C(C=Cc1ccc(C(F)(F)F)cc1)N1CC[S+]([O-])CC1 [Compound 12, 4-(4-trifluoromethylcinnamoyl) thiomorpholine-1-oxide] | 8/10 |  | 
7 | O=C(C=Cc1ccc(C(F)(F)F)cc1)N1CCCCC1CO (stereo not drawn) [Compound 9, 2-Hydroxymethyl-1-(4-trifluoromethylcinnamoyl) piperidine] | 2/10 |  | 
8 | CC1CCCCN1C(=O)C=Cc1ccc(F)cc1 (stereo not drawn) [Compound 4, 2-Methyl-1-(4-fluorocinnamoyl) piperidine] | 7/20 | > 1010 | Persistence Time (gasping) [6]: 23.5 ± 0.8 s; Survival Time [7]: 126.3 ± 6.9 s; Survival Time [8]: 58.4 ± 5.5 min
9 | CC1CCCCN1C(=O)C=Cc1ccc(Cl)cc1 (stereo not drawn) [Compound 3, 2-Methyl-1-(4-chlorocinnamoyl) piperidine] | 9/10 | > 1010 | Persistence Time (gasping) [6]: 30.2 ± 1.1 s; Survival Time [7]: 172.4 ± 11.3 s; Survival Time [8]: 47.7 ± 5.5 min
10 | CCC1(c2ccccc2)C(=O)NC(=O)N(C)C1=O (stereo not drawn) [mephobarbital] |  |  | cerebral protective effect (literature) [4]: have a cerebral protective activity
11 | CCCC(C)C1(CC)C(=O)NC(=S)NC1=O (stereo not drawn) [thiopental] |  |  | cerebral protective effect (literature) [4]: have a cerebral protective activity
12 | O=C(C=Cc1ccc(Cl)cc1)N1CCOCC1 [Compound 16, 4(4-chlorocinnamoyl) morpholine] | 5/10 | 675 to 1010 | 
13 | O=C(C=Cc1ccc(C(F)(F)F)cc1)N1CCSCC1 [Compound 11, 4-(4-Trifluoromethylcinnamoyl) thiomorpholine] | 7/10 |  | 
14 | O=C(C=Cc1ccc(C(F)(F)F)cc1)N1CCC(O)CC1 [Compound 10, 4-Hydroxy-1-(4-trifluoromethylcinnamoyl) piperidine] | 2/10 |  | 
15 | CC1COCCN1C(=O)C=Cc1ccc(C(F)(F)F)cc1 (stereo not drawn) [Compound 2, 3-methyl-4-(4-trifluoromethylcinnamoyl) morpholine] | 8/10 | 675 to 1010 | 
16 | O=C(C=Cc1ccc(F)cc1)N1CCOCC1 [Compound 6, 4-(4-Fluorocinnamoyl) morpholine] | 2/10 | > 1010 | 
17 | O=C(C=Cc1ccc(C(F)(F)F)cc1)N1CCOCC1 [Compound 7, 4-(4-Trifluoromethylcinnamoyl) morpholine] | 4/10 | 300 to 450 | 
18 | CCCC(C)C1(CC)C(=O)NC(=O)NC1=O (stereo not drawn) [pentobarbital] |  |  | cerebral protective effect (literature) [4]: have a cerebral protective activity
19 | CC1CCN(C(=O)C=Cc2ccc(C(F)(F)F)cc2)CC1 [Compound 8, 4-Methyl-1-(4-trifluoromethylcinnamoyl) piperidine] | 5/20 | > 1010 | 
20 | CC1CCCCN1C(=O)C=Cc1ccc(C(F)(F)F)cc1 (stereo not drawn) [Compound 1, 2-methyl-1-(4-trifluoromethylcinnamoyl) piperidine] | 10/10 | > 1010 | Persistence Time (gasping) [6]: 39.1 ± 1.4 s; Survival Time [7]: 582.8 ± 12.1 s; Survival Time [8]: 64.9 ± 5.5 min
